Results published in patent publication US11866482B2, “System and method for homogenous GPCR phosphorylation and identification of beta-2 adrenergic receptor positive allosteric modulators” (Duke University, priority 2018, dated 2024).

Tests used:
[1] = target: β1AR (Homo sapiens, UniProt P08588); test: β1AR-mediated cAMP production; format: cell-based; details: FIG. 21B
[2] = target: T1, β2AR (Homo sapiens, UniProt P07550); test: ISO-induced G protein-mediated cAMP production, endogenously expressed β2AR; format: cell-based; details: FIGS. 15A and 15B
[3] = target: T1, β2AR; test: 3H-FEN agonist binding to β2AR in cell membranes; parameters: host or cells: cell membranes
Procedure: Accordingly, these 50 potential hits from the selection were tested for their ability to increase binding of a radiolabeled agonist, ^3H-fenoterol (^3H-FEN) to the β2AR in membrane preparations, both in the absence and presence of transducers (FIGS. 14E and 14F).
Another feature of allosteric molecules observed in both binding experiments is the “ceiling” effect.

[4] = target: β2AR (Homo sapiens, UniProt P07550, N187E); test: ISO competition binding against 125I-CYP in presence of PAM, β2AR reconstituted in HDL particles; details: ISO vs 125I-CYP
[5] = target: T2, MORpp (Homo sapiens, UniProt P35372); test: In vitro G protein GTPase assay, MORpp HDLs (Gi); details: FIG. 11
Procedure: (§1) G protein GTPase Assay: The GTPase activity of Gαs or Gαi was measured in vitro using the GTPase Glo Assay (Promega) with the following modifications. Final reaction buffer consisted of 20 mM HEPES, pH 7.4, 100 mM NaCl, 10 mM MgCl2, and 1 mg/mL BSA. HDL-β2AR (4 nM), −M2R (100 nM), or MOR (100 nM) was incubated in the absence or presence of the indicated agonist (5 μM) and βarr1 (1 μM) for 15 min at room temperature.
(§2) To test this, an in vitro GTPase activity assay was performed that can quantitatively measure agonist-induced receptor activation of G protein.

[6] = target: T2, MORpp; test: [3H]-Naloxone competition binding, sortase-ligated MORpp HDLs
Procedure: (§3) Radioligand Binding: All equilibrium competition radioligand binding studies were conducted in a final volume of 200 μL containing HDL-receptor, radioligand, a titration of unlabeled competitor, and the presence or absence of the indicated transducer protein. All components were diluted in assay buffer containing 20 mM HEPES, pH 7.4, 100 mM NaCl, and 1 mg/mL bovine serum albumin (BSA). […] G protein or βarr1 were used at a final concentration of 100 nM or 1 μM, respectively, unless specified otherwise. Binding reactions proceeded at room temperature and were harvested onto glass-fiber filters (GFB) with 0.3% polyethyleneimine (PEI) using a 96-well Brandel harvester. Binding data were analyzed in GraphPad Prism using a sigmoidal dose-response curve fit, and differences in log IC50 values were analyzed by one-way ANOVA.

[7] = target: T3, M2Rpp (Homo sapiens, UniProt P08172); test: [3H]-NMS competition binding, sortase-ligated M2Rpp HDLs
T3 sequence (P08172 1-466): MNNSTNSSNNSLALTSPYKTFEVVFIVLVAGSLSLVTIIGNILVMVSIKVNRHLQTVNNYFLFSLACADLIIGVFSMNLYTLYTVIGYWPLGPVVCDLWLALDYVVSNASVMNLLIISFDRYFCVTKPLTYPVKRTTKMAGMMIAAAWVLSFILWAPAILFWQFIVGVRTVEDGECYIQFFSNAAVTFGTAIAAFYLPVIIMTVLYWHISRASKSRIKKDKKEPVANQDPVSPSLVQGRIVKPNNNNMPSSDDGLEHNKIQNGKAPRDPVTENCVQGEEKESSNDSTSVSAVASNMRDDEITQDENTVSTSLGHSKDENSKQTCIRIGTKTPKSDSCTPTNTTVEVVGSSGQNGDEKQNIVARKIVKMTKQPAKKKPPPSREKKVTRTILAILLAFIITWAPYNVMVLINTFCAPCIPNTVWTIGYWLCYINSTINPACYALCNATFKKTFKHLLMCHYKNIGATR
Procedure: as §3

[8] = target: T3, M2Rpp; test: In vitro G protein GTPase assay, M2Rpp HDLs (Gi); details: FIG. 11
Procedure: as §1, §2

T2 sequence (P35372 with tags, fused parts or gaps): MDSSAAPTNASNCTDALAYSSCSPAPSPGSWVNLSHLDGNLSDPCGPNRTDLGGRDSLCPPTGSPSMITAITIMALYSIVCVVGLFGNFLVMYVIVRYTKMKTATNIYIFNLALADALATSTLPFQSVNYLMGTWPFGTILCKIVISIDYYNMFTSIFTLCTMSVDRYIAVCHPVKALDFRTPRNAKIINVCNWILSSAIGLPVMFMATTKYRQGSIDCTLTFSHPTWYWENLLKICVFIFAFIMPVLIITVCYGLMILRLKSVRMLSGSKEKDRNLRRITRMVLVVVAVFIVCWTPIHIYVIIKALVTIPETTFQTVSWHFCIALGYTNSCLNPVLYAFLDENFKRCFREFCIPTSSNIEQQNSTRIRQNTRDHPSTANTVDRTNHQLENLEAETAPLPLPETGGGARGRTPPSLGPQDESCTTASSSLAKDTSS
Chain of β1AR (P08588 whole entry): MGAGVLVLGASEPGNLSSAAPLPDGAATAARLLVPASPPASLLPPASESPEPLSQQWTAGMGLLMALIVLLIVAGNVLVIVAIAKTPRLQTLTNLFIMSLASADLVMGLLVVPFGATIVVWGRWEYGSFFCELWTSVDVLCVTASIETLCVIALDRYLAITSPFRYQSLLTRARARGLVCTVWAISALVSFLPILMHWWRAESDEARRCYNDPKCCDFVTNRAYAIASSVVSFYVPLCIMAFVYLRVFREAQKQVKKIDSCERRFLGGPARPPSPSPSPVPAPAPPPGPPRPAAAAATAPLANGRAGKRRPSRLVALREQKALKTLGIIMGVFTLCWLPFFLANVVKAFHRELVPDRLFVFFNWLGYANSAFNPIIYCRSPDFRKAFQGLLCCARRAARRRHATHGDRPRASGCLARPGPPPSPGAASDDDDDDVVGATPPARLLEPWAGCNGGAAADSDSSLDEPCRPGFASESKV

For `COc1ccc(Sc2ccc(S(=O)(=O)N(C)C(C)C)cc2C(=O)N[C@@H](CC(N)=O)Cc2ccc(C(C)(C)C)cc2)cc1` [Cmpd-6, (R)—N-(4-Amino-1-(4-(tert-butyl)phenyl)-4-oxobutan-2-yl)-5-(N-isopropyl-N-methylsulfamoyl)-2-((4-methoxyphenyl)thio)benzamide], the “changes in ISO dose response pattern of cAMP production” value [1] was “Marginal changes”.
`COc1ccc(Sc2ccc(S(=O)(=O)Nc3cccc(F)c3)cc2C(=O)N[C@@H](CC(N)=O)Cc2ccc(C(C)(C)C)cc2)cc1` [Cmpd-43, (R)—N-(4-Amino-1-(4-(tert-butyl)phenyl)-4-oxobutan-2-yl)-5-(N-(3-fluorophenyl)sulfamoyl)-2-((4-methoxyphenyl)thio)benzamide] was tested, and the “effect on ISO-induced cAMP production” value [2] was “increased the maximal response induced by ISO as well as potentiated the EC50 value”, the “increase in 3H-FEN binding to the β2AR” value [3] was “dose-dependently increase the binding” and the “potentiation of the IC50 value of ISO” value [4] was roughly 30 fold.
In the case of `C[C@@H](NC(=O)[C@@H](N)Cc1ccc(O)cc1)C(=O)NCC(=O)N(C)[C@@H](Cc1ccccc1)C(=O)NCCO` [DAMGO], the “G protein activation (GTP hydrolysis)” value [5] is reported as “increases G protein activation”, the “increase in agonist affinity by βarr1” value [6] is reported as 2 fold and the “increase in agonist affinity induced by G protein” value ([6]; Gi heterotrimer) is reported as greater than 100 fold.
In the case of `C[N+](C)(C)CCOC(N)=O` [carbachol], the “increase in agonist affinity by βarr1” value [7] is reported as 57 fold and the “increase in agonist affinity induced by G protein” value ([7]; Gi heterotrimer) is reported as greater than 100 fold.
`C[N+](C)(C)CC#CCOC1=NOCC1` [iperoxo] was tested, and the “G protein activation (GTP hydrolysis)” value [8] was “increases G protein activation” and the “effects of G protein and βarr on agonist affinity” value ([7]; FIGS. 9E and 9F) was “comparable effects of G protein and βarr”.
